Measurements reported in PubChem BioAssay AID504882 (Broad Institute, 2011).
Results filed as inconclusive are left out. Activity calls are given as the source filed them. How the calls were made is not given here.

Test system: EBV lymphoblastoid cells (LCL) viability, plate reader
Experiment: cytotoxicity in EBV lymphoblastoid cells, dose response, cytotoxicity control, cell-based, plate reader, cherry-picks, set 2 (AID 504882)

SMILES | AC50
CCN(CC)S(=O)(=O)c1ccc(N/N=C/c2ccc(O)cc2O)nc1 | 3.31 µM
COc1ccc(N/N=C/c2c(C(=O)O)ccc3ccccc23)cc1 | 3.99 µM
CCCC(=O)NC(c1ccc(C(C)C)cc1)c1ccc2cccnc2c1O (stereo unspecified) | 1.74 µM
COc1ccc(C=C2CS(=O)(=O)CC(=Cc3ccc(OC)cc3)C2=O)cc1 | 0.675 µM
COc1ccc(/C=N/Nc2cc(C)nc3ccc(OC)cc23)c(OC)c1 | 3.47 µM
CCCC(=O)NC(c1cccc([N+](=O)[O-])c1)c1ccc2cccnc2c1O (stereo unspecified) | 3.51 µM
COc1ccc(C(=O)NC(=S)NNC(=O)c2ccc3ccccc3n2)cc1 | 3.69 µM
Nc1ccc(C(=O)N/N=C\c2cc(N=Nc3cccc4ccccc34)ccc2O)cc1 | 10.7 µM
CN1C(=O)N(C)c2ccc(C=O)c3cccc1c23 | 5.99 µM
CCN(CC)S(=O)(=O)c1cc([N+](=O)[O-])ccc1NNC(=O)Nc1ccc(Cl)c(Cl)c1 | 20.2 µM
Nc1ccn([C@@H]2O[C@H](CO)[C@@H](O)C2O)c(=O)n1 (stereo partly specified) | 1.1 µM
COc1cccc(/C=N/NC(=O)c2[nH]nc3c2CCc2ccccc2-3)c1O | 4.51 µM
CCN(CC)c1ccc(/C=N/NC(=O)c2c(Cl)cnn2C)c(O)c1 | 3.19 µM
COc1cccc(/C=N/Nc2ncnc3c2ncn3Cc2ccccc2)c1O | 2.21 µM
COc1ccc(-c2ccc(NC(=O)c3ccco3)cc2)nn1 | 4.42 µM
COc1ccc(C(NC(C)=O)c2cc(Cl)c3cccnc3c2O)cc1 (stereo unspecified) | 6.92 µM
CC(=NNC(=S)N1CCCCC1)c1cccc(C)n1 | 2.37 µM
CC(=O)NC(c1cccs1)c1cc(F)c2cccnc2c1O (stereo unspecified) | 6.96 µM
C=CCn1c(O)c(N=NC(=S)Nc2cccc(C)c2)c2ccccc21 | 2.48 µM
CCOC(=O)c1c(C)[nH]c(C(=O)N/N=C\c2ccccc2O)c1C | 6.7 µM
CCCCC(=O)NC(c1ccc(OC)cc1)c1ccc2cccnc2c1O (stereo unspecified) | 17.7 µM
N#CC(C#N)=NNc1ccc(-n2ccc(C(F)(F)F)n2)cc1 | 2.53 µM
C#Cc1cc(N2CCN(C(=O)c3ccoc3)CC2)n2nc(-c3cccc(Cl)c3)cc2n1 | 10.4 µM
O=C(Oc1c(Cl)cc(Cl)c2cccnc12)c1cccc([N+](=O)[O-])c1 | 18.8 µM

SMILES | AC50
COc1cc(C=C2CCCC(=Cc3ccc(OCC4CO4)c(OC)c3)C2=O)ccc1OCC1CO1 (stereo unspecified) | 5.45 µM
C=C(C(=O)c1ccccc1)C(CC(=O)c1ccccc1)c1ccccc1 (stereo unspecified) | 3.79 µM
S=C(NN=Cc1ccccn1)Nc1ccccn1 | 9.02 µM
Clc1ccc(SCc2cc(N3CCOCC3)nc(-c3ccccn3)n2)cc1 | 4.05 µM
Cc1cc(S(=O)(=O)c2ccc(Cl)cc2)nc(S(=O)(=O)c2ccc(Cl)cc2)c1C#N | 0.855 µM
C/C(=N\NC(=O)c1cccc(Br)c1)c1ccccn1 | 0.803 µM
COc1ccccc1-c1nc(-c2ccccn2)no1 | 10.8 µM
O=C(N/N=C/c1c(O)ccc2ccccc12)c1cccnc1 | 10.5 µM
Cc1ccc2nc(-c3ccccn3)[nH]c2c1 | 19.5 µM
O=C(NC(Nc1nc2ccc([N+](=O)[O-])cc2s1)(C(F)(F)F)C(F)(F)F)c1ccccc1 | 0.298 µM
CC(=NNC(=S)Nc1ccccc1Cl)c1ccccn1 | 0.055 µM
CC(=NNC(=S)Nc1ccc(C)cc1)c1ccccn1 | 0.269 µM
CC(C)OC(=O)c1ccc(NCc2cc(O)ccc2O)cc1Cl | 5.06 µM
CCOc1ccc(C(C)=O)cc1COc1cccnc1[N+](=O)[O-] | > 19.5 µM (inactive)
CCOC(=O)CC(NC(=O)C(Cc1ccc(N(CCCl)CCCl)cc1)NC(C)=O)C(=O)OCC (stereo unspecified) | 5.68 µM
Cc1oc2c(c1C(=O)c1ccc(Cl)cc1)C(=O)C(=O)c1ccccc1-2 | 5.51 µM
O=S(=O)(c1ccccc1)N1CCN(c2cc(-c3ccccc3)nc3ncnn23)CC1 | > 19.5 µM (inactive)
Cc1cc(N/N=C\c2ccc(Br)cc2)nc(-n2nc(C)cc2C)n1 | 4.81 µM
O=C(NC(c1ccc(Cl)cc1)c1cc(Cl)c2cccnc2c1O)c1cccnc1 (stereo unspecified) | 4.72 µM
O=[N+]([O-])c1ccc(O)c(/C=N/Nc2ncnc3c2cnn3-c2ccccc2)c1 | 4.55 µM
C=CCn1c(O)c(N=NC(=S)Nc2ccccc2F)c2ccccc21 | 10.2 µM
CC1=C(C(=O)OCc2ccc3c(c2)OCO3)C(c2ccc(Cl)cc2)NC(=O)N1 (stereo unspecified) | 0.379 µM
CCN(CC)c1ccc(/C=N/Nc2nc3ccccc3[nH]2)c(O)c1 | 2.74 µM
Oc1ccc(C=NNc2ccccn2)c(O)c1 | 16.2 µM

SMILES | AC50
O=c1c2c(nc3c(-c4ccc(Cl)cc4)c[nH]n13)CCCC2 | 2.44 µM
C=CCNC(=S)N/N=C(\C)c1ccccn1 | 0.13 µM
CC(=NNC(=S)N1CCCCCC1)c1ccccn1 | 0.354 µM
CCn1c2ccccc2c2cc(/C=C(/C#N)C(N)=S)ccc21 | 0.998 µM
Cc1ccc(CSc2nc3ccncc3[nH]2)cc1 | 19.5 µM
O=S(=O)(c1ccc2c(c1)C(=NO)c1cc(S(=O)(=O)N3CCCCC3)ccc1-2)N1CCCCC1 | 1.2 µM
Oc1ccc(C=NNC(=S)Nc2ccccc2)nc1 | 13 µM
COc1ccccc1/C=C/C(=O)c1ccc(Cl)cc1 | > 19.5 µM (inactive)
Oc1cccc(C(Nc2nccs2)c2ccc3cccnc3c2O)c1 (stereo unspecified) | 11.4 µM
C(=Cc1cnc2ccccc2n1)c1ccc2c(c1)OCO2 | 6.12 µM
C[n+]1c2n(c3ccccc31)N=C(c1cc(C(C)(C)C)c(O)c(C(C)(C)C)c1)CS2 | 7.62 µM
CCCCC(=O)NC(c1ccc(Cl)cc1)c1ccc2cccnc2c1O (stereo unspecified) | 3.65 µM
COc1ccc(Cn2c(SCc3cc(C)ccc3C)nc3cc(OC)c(OC)cc3c2=N)cc1 | 6.5 µM
CC(=NNC(=S)Nc1ccccc1)c1ccccn1 | 0.068 µM
O=C(N/N=C/c1c(O)ccc2ccccc12)c1ccc(Br)o1 | 6.22 µM
Cc1cc(Sc2nnc(N)s2)c2ccccc2n1 | 16.8 µM
CC1(C)N=C(N)N=C(N)N1c1ccc(CCCCc2ccccc2)cc1 | 0.991 µM
CCCc1cc(=O)n2[nH]cc(-c3ccc(Cl)cc3)c2n1 | 8.45 µM
C=CCn1c(C)c(C(C)=O)c(N2CCN(C(c3ccccc3)c3ccccc3)CC2)nc1=S | > 19.5 µM (inactive)
O=C(N/N=C/c1ccc(O)cc1O)c1ccc(CN2C(=O)c3cccc4cccc2c34)cc1 | 3.53 µM
CC(=NNC(=S)N1CC2CCC(CC2)C1)c1nccs1 | 0.362 µM
COc1ccc(Cc2nnc(N/N=C/c3ccc(O)cc3)[nH]c2=O)cc1OC | 4.05 µM
Clc1ccc(-n2nnnc2Sc2ncnc3sccc23)cc1 | 8.53 µM
COc1ccc(-n2nc(C(=O)c3cccs3)cc(-c3nc4ccccc4[nH]3)c2=N)cc1 | 8.9 µM

SMILES | AC50
CNc1cccnc1C=NNC(N)=S | 7.97 µM
CCN(CC)C(=O)c1ccc(NC(=O)Nc2ccccc2F)cc1 | 2.63 µM
CCCN(CCC)S(=O)(=O)c1ccc(C(=O)Nc2nnc(-c3cc(OC)cc(OC)c3)o2)cc1 | > 19.5 µM (inactive)
C#CCN(C[C@@H]1[C@@H](OC(=O)NCCCCCC)[C@@H](OC(=O)NCCCCCC)Cn2c(=O)ccc(=O)n21)S(=O)(=O)c1ccc(C)cc1 | 3.98 µM
Cc1ccc2[nH]c(C(=O)N/N=C/c3ccccc3O)c(C)c2c1 | 3.05 µM
CCn1c2ccccc2c2cc(/C=N/NC(=O)c3ccccc3)ccc21 | 1.52 µM
c1ccc(-c2nc(-c3ccccn3)no2)cc1 | 9.22 µM
S=C1SCN(Cc2ccco2)CN1Cc1ccco1 | 15.8 µM
COc1cccc(/C=N/Nc2nc3ccccc3[nH]2)c1O | 4.42 µM
c1ccc(C2=NNC(=NC3CC3)SC2)cc1 | 11.9 µM
CCCc1c(C(=O)N/N=C(\C)c2ccccn2)nnn1-c1nonc1N | 1.57 µM
CCc1sc(C(=O)Nc2nc(-c3ccccn3)cs2)cc1C | 7.43 µM
CC(=O)NC(c1ccc(Cl)cc1Cl)c1ccc2cccnc2c1O (stereo unspecified) | 1.56 µM
N#Cc1c(Oc2ccc3ccccc3c2)sc(C(=O)c2ccccc2)c1N | 20 µM
COc1ccc(-c2nc(-c3cccs3)no2)cc1 | > 19.5 µM (inactive)
CCCCC(=O)NC(c1cccc([N+](=O)[O-])c1)c1ccc2cccnc2c1O (stereo unspecified) | 5.14 µM
Cc1c(C(=O)Nc2nc(-c3ccccn3)cs2)oc2ccccc12 | 11 µM
CCN(CC)S(=O)(=O)c1cccc(NC(=O)Nc2cccc(C(F)(F)F)c2)c1 | 9.7 µM
O=c1cc(-c2ccccc2)oc2ccc3ccccc3c12 | 8.53 µM
O=C(Nc1ccc(N2CCOCC2)cc1)c1cn2ccccc2n1 | 10.9 µM
O=C(CF)N(O)c1ccc(C=Cc2ccccc2)cc1 | 4.21 µM
O=C(Nc1ccc(C(=O)N2CCOCC2)cc1)Nc1cccc(C(F)(F)F)c1 | > 19.5 µM (inactive)
CC(=NNC(=S)N1CCCC1)c1ccccn1 | 0.037 µM
Cc1nc2c(-c3ccc(Cl)cc3)c(C)[nH]n2c(=O)c1Cc1ccccc1 | 6.96 µM

SMILES | AC50
Fc1ccc2[nH]c3c(N4CCSCC4)ncnc3c2c1 | 17.5 µM
C(=N\Nc1nc2ccccc2[nH]1)/c1cccc2cccnc12 | 1.06 µM
C#CCN(C[C@@H]1[C@@H](OC(=O)NCC2CCCCC2)[C@@H](OC(=O)NCC2CCCCC2)Cn2c(=O)ccc(=O)n21)S(=O)(=O)c1ccc(C)cc1 | 3.84 µM
CC(=O)Nc1nc(C)c(-c2csc(Nc3ccc(O)cc3)n2)s1 | 19.4 µM
C/C(=N/NC(=O)c1ccc(C(C)(C)C)cc1)c1ccccn1 | 1.05 µM
O=C(N/N=C/c1ccc[nH]1)c1ccc(COc2cccc3cccnc23)cc1 | 4.93 µM
CCCCC(=O)NC(c1ccc(Cl)cc1Cl)c1ccc2cccnc2c1O (stereo unspecified) | 2.55 µM
Cc1cc(=O)[nH]c(NN=Cc2cc(Br)ccc2O)n1 | 3.92 µM
O=C(Nc1nnc(SCc2ccc(F)cc2)s1)c1ccccn1 | 14.1 µM
CCC(=O)NC(c1cc(Cl)c2cccnc2c1O)C(C)C (stereo unspecified) | 6.78 µM
COc1ccccc1[C@]1(C)ON(c2ccccc2C(F)(F)F)C1=O | 16.7 µM
O=Cc1ccc(-c2cccs2)s1 | 11.8 µM
COc1ccc2[nH]c(C(=O)N/N=C/c3ccc(O)cc3O)cc2c1 | 16 µM
CC(=NNc1nc2ccccc2o1)c1cc2ccccc2cn1 | 0.154 µM
CN(C)c1ccc(C=Cc2ccnc3c(O)cccc23)cc1 | 10.5 µM
C#CCN(C[C@@H]1[C@@H](OC(=O)NCc2ccccc2F)[C@@H](OC(=O)NCc2ccccc2F)Cn2c(=O)ccc(=O)n21)S(=O)(=O)c1ccc(C)cc1 | 3.8 µM
CCC(=O)NC(c1cc(Cl)c2cccnc2c1O)C1CC1 (stereo unspecified) | 6.08 µM
C=C1C(=O)C2=CC1CCC(=O)C1(C)CCC(OC(C)=O)C(C)(C)C1CC2O (stereo unspecified) | 5.14 µM
Cc1ccc2[nH]c3c(c2c1)CCCC3NC(=O)CCl (stereo unspecified) | 1.41 µM
CCOc1ccc(C(=O)Nc2cc(C)ccn2)cc1 | 9.64 µM
